Test results from patent US8057829B2, “Methods for repelling insects using sesquiterpene hydrocarbons and their derivatives” (Sterling International Inc., priority 2008, dated 2011).

Tests used:
[1] = tested on: Ae. aegypti and An. stephensi; experiment: K&D module bioassay, statements pooled for both mosquito species; assay type: in vivo, Aedes aegypti; Anopheles stephensi; details: DEET at 10 μg/cm^2, oxide and ketone at similar or lower dosages as DEET, oils at about 10 mg/d release
Protocol: (§1) The bioassays were conducted with a six-cell in vitro K&D module system, as disclosed in Klun and Debboun, J. Med. Entomol. 37:177-181 (2000), loaded with an “artificial blood” (CPDA+ATP) solution.
Clove essential oil, patchouli oil, and EAD-active potential repellents, β-caryophyllene, isocaryophyllene, (+)-longifolene, and their 1:1:1 mixture, plus α-guaiene, caryophyllene oxide, and a β-caryophyllene ketone, were tested using the six-cell in vitro K&D module system (Klun and Debboun, J. Med. Entomol. 37:177-181 (2000)) loaded with an “artificial blood” (CPDA+ATP) solution on both Ae. aegypti and An. stephensi in a dose-response fashion. The K&D in vitro assay system has three components: (1) a Plexiglas™ 29.7 cm.×7.1 cm K&D module composed of six adjacent cells, each designed to hold mosquitoes and each having a rectangular 3×4 cm floor hole that is opened and closed by a sliding door; (2) a Plexiglas™ six-well 29.7 cm×7.1 cm water water-bath warmed (38° C.) reservoir with six 3×4 cm wells designed to match the sliding-door openings of the K&D module base and to contain 6 mL warmed “artificial blood” wells covered with a collagen membrane; and (3) a 29.7 cm×7.1 cm'0.4 cm Teflon® separator having six rectangular openings like the K&D module. The K&D module was connected to a constant temperature water circulator at 38° C. The cells were covered with an Edicol collagen membrane strip. Nylon organdy strips with ink cell patterns were numbered and randomly treated with five dilutions of the tested chemical in ethanol (ethanol alone as blank control), plus DEET (ca. 10 μg/cm^2) as a positive control. This treated nylon organdy strip was placed on top of the collagen membrane. The upper section of the K & D module with the six cells each containing 5 mosquitoes (5-10 d old, starved for 24 hr before testing) was placed on top of the nylon strip. […] The experiments were allowed to run for 3 minutes, and the number of mosquitoes feeding (biting) in each cell was recorded. […]

[2] = tested on: male false stable fly Muscina stabulans antenna and female mosquito Aedes (Ochlerotatus) increpitus Dyar antenna; experiment: GC-EAD responses of false stable fly and Aedes increpitus to a synthetic mixture; details: about 100 ng of each compound, FIG. 5
Protocol: The GC-EAD responses of the male false stable fly Muscina stabulans antenna and the female mosquito Aedes (Ochlerotatus) increpitus Dyar antenna were tested on a synthetic mixture of linalool and two representative sesquiterpene hydrocarbons, β-caryophyllene and α-humulene, and one sesquiterpene oxide, β-caryophyllene oxide, with about 100 ng of each compound in the mixture.
The following procedures were employed to test the EAD response of an insect antenna to a repellent compound. The GC-EAD technique provides an efficient tool for screening behaviorally active repellents. Several synthetic mixtures of potential insect repellent candidates, mostly sesquiterpene hydrocarbons and derivatives, were analyzed in splitless mode using a Varian CP-3800 GC equipped with a polar column (Innowax; 1.0 μm film thickness, 30 m×0.53 mm ID; J & W Scientific), and a 1:1 effluent splitter that allowed simultaneous flame ionization detection (FID) and EAD of the separated volatile compounds. Helium was used as the carrier gas, and the injector temperature was 220° C. The column temperature was 50° C. for 2 min, rising to 240° C. at 10° C./min, then held for 10 min. The outlet for the EAD was held in a humidified air stream flowing at 0.5 liter/min. over an antennal preparation. A glass capillary indifferent electrode filled with Beadle-Ephrussi Ringer, and grounded via a silver wire, was inserted into the severed insect's head with the antennae. A similar recording electrode connected to a high-impedance DC amplifier with automatic baseline drift compensation was placed in contact with the distal end of one antenna (Zhang et al., Chemoecology, 10:69-80 (2000)). The antennal signals were stored and analyzed on a PC equipped with a serial IDAC interface box and the program EAD ver. 2.5 (Syntech, Hilversum, The Netherlands). The compound 1-octen-3-ol (known attractant for many flies and mosquitoes) was included in most of the synthetic mixtures, as a positive control. The results of the experiments are shown in FIGS. 1-10 and described above.

[3] = tested on: female antennae of sand fly Phlebotomus papatasi and mosquitoes Aedes aegypti, Anopheles gambiae, Anopheles stephensi; experiment: GC-EAD responses of sand fly and three mosquitoes to synthetic mixtures; details: about 100 ng of each compound, on one or more of the sand fly or the mosquitoes, FIGS. 9 and 10
Procedure, shortened: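 Female antennae recorded by GC-EAD (split with FID) against synthetic mixtures with about 100 ng of each compound, 1-octen-3-ol as positive control; polar Innowax column, 50° C 2 min then 10° C/min to 240° C. Effluent in humidified air at 0.5 liter/min over severed-head preparation with Ringer-filled electrodes.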

[4] = tested on: Aedes aegypti; experiment: K&D module behavioral bioassay (topical repellency, biting); assay type: in vivo
Protocol: as §1
(§2) Clove essential oil, patchouli oil, and EAD-active potential repellents, β-caryophyllene, isocaryophyllene, (+)-longifolene, and their 1:1:1 mixture, plus α-guaiene, caryophyllene oxide, and a β-caryophyllene ketone, were tested using the six-cell in vitro K&D module system (Klun and Debboun, J. Med. Entomol. 37:177-181 (2000)) loaded with an “artificial blood” (CPDA+ATP) solution on both Ae. aegypti and An. stephensi in a dose-response fashion. The K&D in vitro assay system has three components: (1) a Plexiglas™ 29.7 cm.×7.1 cm K&D module composed of six adjacent cells, each designed to hold mosquitoes and each having a rectangular 3×4 cm floor hole that is opened and closed by a sliding door; (2) a Plexiglas™ six-well 29.7 cm×7.1 cm water water-bath warmed (38° C.) reservoir with six 3×4 cm wells designed to match the sliding-door openings of the K&D module base and to contain 6 mL warmed “artificial blood” wells covered with a collagen membrane; and (3) a 29.7 cm×7.1 cm'0.4 cm Teflon® separator having six rectangular openings like the K&D module. The K&D module was connected to a constant temperature water circulator at 38° C. The cells were covered with an Edicol collagen membrane strip. Nylon organdy strips with ink cell patterns were numbered and randomly treated with […] of the tested chemical in ethanol (ethanol alone as blank control), plus DEET (ca. 10 μg/cm^2) as a positive control. This treated nylon organdy strip was placed on top of the collagen membrane. The upper section of the K & D module with the six cells each containing 5 mosquitoes (5-10 d old, starved for 24 hr before testing) was placed on top of the nylon strip. The doors to the cells were slid open so the mosquitoes could be free to feed on the “artificial blood” via the collagen membrane if they were hungry. The experiments were allowed to run for 3 minutes, and the number of mosquitoes feeding (biting) in each cell was recorded. After each experiment, the nylon and collagen strips were removed. The CPDA+ATP solution was removed and allowed to dry prior to starting the next experiment. The experiments on each chemical and each mosquito species were run three times before the bottom section with circulated water was cleaned prior to use again.

[5] = tested on: Anopheles stephensi; experiment: as above; assay type: in vivo
Protocol: as §1, §2

[6] = tested on: Phlebotomus papatasi; experiment: Y-tube olfactometer behavioral bioassay (spatial repellency); assay type: in vivo; details: for SAI (Spatial Activity Index): Phlebotomus papatasi; for Number of mosquitoes in each arm: Repellent: Phlebotomus papatasi (sand fly) females, release rate per chemical (1-35 mg/day); for Number of mosquitoes in each arm: Repellent / Number of mosquitoes in each arm: Blank / Number of mosquitoes in each arm: Bottom: 10 min; for Number of mosquitoes in each arm: Blank / Number of mosquitoes in each arm: Bottom: Phlebotomus papatasi females, release rate per chemical
Protocol: (§3) Aegypti and An. stephensi, and one species of sand fly, P. papatasi. Both the mosquitoes and the sand flies used in the study were from colonies maintained at the Walter Reed Army Institute of Research, Department of Entomology, Silver Spring, Md. This Y-tube bioassay system, equipped with CO2-enriched air (ca. 1 l/min) as an attractant, was made from three clear acrylic tubes (4″ diameter; 12″ length) with symmetrical 120° angles among the three tube arms; and a screen butterfly valve on the top part of the bottom releasing tube. These spatial repellency tests were carried out during 8:00 am-12:00 pm (photophase) time period for Ae. aegypti and 1:00-5:00 pm (shifted scotophase) time period for the species of night-flying mosquitoes and sand fly in a temperature and humidity controlled testing room (23-25° C. and 20-40% RH). Female mosquitoes or sand flies were stored at ˜25-26° C., 50-89% RH, 12:12 hr. (L/D), fed with 10% sucrose solution before testing. The candidate chemical (individual or mixture) dispenser and a blank control were placed in the upper left or right arm of the Y-tube before releasing 25-40, 6 to 10 day-old female mosquitoes (or 3 to 10 day-old sand flies) into the bottom tube via a small hole. After a 30-60 sec acclimation period, the butterfly screen valve (door) on the top of the bottom tube was opened. After 10 min., the valve was closed and the numbers of mosquitoes or sand flies in each arm (including the bottom tube) were counted. In order to minimize the position effect, the same experiment was repeated once with the treatment and blank control arms shifted using a new (clean) Y-tube olfactometer and a new batch of mosquitoes/sand flies. Data from these two replicates were pooled for χ2 goodness of fit test (df=1) between the treatment and blank control.

[7] = tested on: Aedes aegypti; experiment: as above; assay type: in vivo; details: for Number of mosquitoes in each arm: Blank / Number of mosquitoes in each arm: Bottom / Number of mosquitoes in each arm: Repellent: Aedes aegypti females, release rate per chemical (1-60 mg/day), 10 min; for Number of mosquitoes in each arm: Repellent: two replicates pooled; for SAI (Spatial Activity Index): Aedes aegypti, (Nc − Nt)/(Nc + Nt), −1 to 1, zero indicating no response
Protocol: as §3

[8] = tested on: Anopheles stephensi; experiment: as above; assay type: in vivo; details: for Number of mosquitoes in each arm: Repellent / Number of mosquitoes in each arm: Blank / Number of mosquitoes in each arm: Bottom: Anopheles stephensi females, 10 min; for Number of mosquitoes in each arm: Repellent: release rate per chemical (1-60 mg/day; β-Caryophyllene 10 mg/day); for Number of mosquitoes in each arm: Blank / Number of mosquitoes in each arm: Bottom: release rate per chemical (β-Caryophyllene 10 mg/day); for SAI (Spatial Activity Index): Anopheles stephensi, β-Caryophyllene 10 mg/day
Protocol: as §3

[9] = 10 μg/cm^2, DEET values are the positive control run with the chemical

## C=C1CC[C@H]2O[C@]2(C)CC[C@@H]2[C@@H]1CC2(C)C [β-Caryophyllene Oxide, β-Caryophyllene oxide]
[1]
  topical repellency / feeding deterrence, in words: even stronger topical repellency
[2]
  GC-EAD antennal activity: active on at least one of the insects tested
[3]
  GC-EAD antennal activity: antennally active
[4]; 1 μg/cm^2, 3 minutes
  % of biting (±SE) (N = 3): 27 ± 7b %
[4]; 5 μg/cm^2
  % of biting (±SE) (N = 3): 27 ± 7b %
[4]; [9]
  % of biting (±SE) (N = 3): 0 ± 0a %
[4]; 50 μg/cm^2
  % of biting (±SE) (N = 3): 0 ± 0a %
[5]; 1 μg/cm^2, 3 minutes
  % of biting (±SE) (N = 3): 27 ± 13abc %
[5]; 5 μg/cm^2
  % of biting (±SE) (N = 3): 47 ± 7bc %
[5]; [9]
  % of biting (±SE) (N = 3): 20 ± 12ab %
[5]; 50 μg/cm^2
  % of biting (±SE) (N = 3): 0 ± 0a %
[6]
  SAI (Spatial Activity Index): 0.91
  Number of mosquitoes in each arm: Repellent: 4
  Number of mosquitoes in each arm: Blank: 83
  Number of mosquitoes in each arm: Bottom: 5
[7]
  Number of mosquitoes in each arm: Blank: 38
  Number of mosquitoes in each arm: Bottom: 26
  Number of mosquitoes in each arm: Repellent: 15
  SAI (Spatial Activity Index): 0.43
[8]
  Number of mosquitoes in each arm: Repellent: 15
  Number of mosquitoes in each arm: Blank: 24
  Number of mosquitoes in each arm: Bottom: 23
  SAI (Spatial Activity Index): 0.23

## C/C1=C\CCC(=O)[C@H]2CC(C)(C)[C@@H]2CC1 [β-Caryophyllene Ketone, β-caryophyllene ketone]
[1]
  topical repellency / feeding deterrence, in words: even stronger topical repellency
[4]; 1 μg/cm^2, 3 minutes
  % of biting (±SE) (N = 3): 20 ± 0bc %
[4]; 5 μg/cm^2
  % of biting (±SE) (N = 3): 13 ± 7ab %
[4]; [9]
  % of biting (±SE) (N = 3): 7 ± 7ab %
[4]; 50 μg/cm^2
  % of biting (±SE) (N = 3): 0 ± 0a %
[5]; 1 μg/cm^2, 3 minutes
  % of biting (±SE) (N = 3): 47 ± 7cd %
[5]; 5 μg/cm^2
  % of biting (±SE) (N = 3): 33 ± 7bc %
[5]; [9]
  % of biting (±SE) (N = 3): 20 ± 12ab %
[5]; 50 μg/cm^2
  % of biting (±SE) (N = 3): 0 ± 0a %
[6]
  SAI (Spatial Activity Index): 0.18
  Number of mosquitoes in each arm: Repellent: 20
  Number of mosquitoes in each arm: Blank: 29
  Number of mosquitoes in each arm: Bottom: 23
[7]
  Number of mosquitoes in each arm: Blank: 37
  Number of mosquitoes in each arm: Bottom: 20
  Number of mosquitoes in each arm: Repellent: 28
  SAI (Spatial Activity Index): 0.14
[8]
  Number of mosquitoes in each arm: Repellent: 10
  Number of mosquitoes in each arm: Blank: 18
  Number of mosquitoes in each arm: Bottom: 32
  SAI (Spatial Activity Index): 0.29

## CCN(CC)C(=O)c1cccc(C)c1 [DEET, N,N-diethyl-m-toluamide, reference compound]
[1]
  topical repellency / feeding deterrence, in words: significantly inhibited/blocked the feeding (biting) activity
[3]
  GC-EAD antennal activity: does not appear to have elicited antennal activity
